These results are taken from patent US4954523A, “Benzophenone oxime ether compounds, pharmaceutical compositions and treatment methods” (Eisai Co., Ltd., priority 1986, dated 1990).

Assay [1] relates to platelets (aggregation induced with collagen, arachidonic acid, ADP or PAF). Briefly: Effect in inhibiting aggulutination of platelets (in vitro), human platelet-rich plasma. The assay is classed as cell-based. As for the experimental part:
1. Effect in inhibiting aggulutination of platelets […]
The blood was collected from a human cubital vein in such a manner as to contain a 3.8% solution of sodium citrate in an amount 1.10 time by volume as much as the blood. Then platelet-rich plasma (PRP) was prepared therefrom according to the method reported by Packham et al. (ct. Packham, M. A., et al, J. Exp. Med., 126, 171-189 (1967)). To 0.2 ml of the obtained PRP, 25 μl portions of solutions of each compound of the present invention (A to E) at various concentrations were added and incubated at 37° C. for three minutes. Then the aggultination of platelets was induced with arachidonic acid, collagen, ADP and PAF. The aggulutination of platelets was evaluated according to the method reported by Mustard et al. (cf. Mustard, J. F., et al., J. Lab. Clin. Med., 64, 548-559 […] with the use of an aggregometer available from Schenko or Niko Bioscience Co. In other words, this test is carried out to examine the effect of platelet aggregation (in vitro).
(§1) The tests were conducted in the same way as shown before from the diphenylethylene derivative. Results for inhibition of aggulutination are shown in Table 3 for the in-vitro test and in Table for the ex-vivo test. The acute toxicity test provided the same results as obtained with the diphenylethylene derivative.

Assay [2] has as its system platelets (aggregation induced by collagen or arachidonic acid). Briefly: Effect of inhibiting aggultination of platelets (ex vivo), oral administration to guinea pigs. The assay is classed as in vivo. As to conditions: Cavia porcellus, Platelet, 2 h. On the procedure: 2. Effect of inhibiting aggultination of platelets (ex vivo)
The compound A to E, which were typical examples of the compound of the present invention, were orally administered to guinea pigs. After two hours, the blood of each animal was collected from the abdominal aorta thereof under etherization. Then the effect of each compound on the aggultination of platelets induced by collagen (3 μg/ml) and arachidonic acid (50 μM) was examined. […] In other words, this test is conducted to examine the effect of platelet aggregation (ex vivo).
as §1

Setting [3] is: ADP-induced, human PRP, incubated at 37° C. for three minutes, in vitro, read-out: Effect of inhibiting ADP aggultination IC50.
The mark [4] stands for this setting: PAF-induced, human PRP, incubated at 37° C. for three minutes, in vitro, read-out: Effect of inhibiting PAF aggultination IC50.
[5] abbreviates: arachidonic acid-induced, human PRP, incubated at 37° C. for three minutes, in vitro, read-out: Effect of inhibiting arachidonic acid aggultination IC50.
The mark [6] stands for this setting: collagen-induced, human PRP, incubated at 37° C. for three minutes, in vitro, read-out: Effect of inhibiting collagen aggultination IC50.
Where [7] appears, read: guinea pigs, oral, two hours after administration, arachidonic acid (50 μM), ex vivo, read-out: Effect of inhibiting arachidonic acid aggultination ED50.
Where [8] appears, read: guinea pigs, oral, two hours after administration, collagen (3 μg/ml), ex vivo, read-out: Effect of inhibiting collagen aggultination ED50.

The structures appear in SMILES notation. Like-named read-outs stand apart in the source and are kept apart here.

In the case of `COc1ccc(C(=CC(=O)NCc2ccccc2)c2ccc(OC)cc2)cc1` [Cpd. A, N-Benzyl-3,3-bis(4-methoxyphenyl)acrylamide], the IC50 in assay [1] (setting [3]) was 5 µM; in assay [1] (setting [4]), 15 µM; in assay [1] (setting [5]), 5 µM; in assay [1] (setting [6]), 20 µM. Also, the ED50 in assay [2] (setting [7]) and in assay [2] (setting [8]) was 100 mg/kg each time.
With `COc1ccc(C(=CCNS(=O)(=O)c2ccccc2)c2ccc(OC)cc2)cc1` [Cpd. B, N-[3,3-Bis(4-methoxyphenyl)allyl]benzensulfonamide], the IC50 in assay [1] (setting [3]) amounted to 2 µM; in assay [1] (setting [4]), 2.5 µM; in assay [1] (setting [5]), 0.9 µM; in assay [1] (setting [6]), 1.4 µM. The ED50 in assay [2] (setting [7]) and in assay [2] (setting [8]) was 20 mg/kg in each case.
On to `CCOC(=O)CCC(C#N)=C(c1ccc(OC)cc1)c1ccc(OC)cc1` [Cpd. C, Ethyl 4-cyano-5,5-bis(4-methoxyphenyl)-4-pentenoate], for which the IC50 in assay [1] (setting [3]) was determined as 0.2 µM; in assay [1] (setting [4]) it was 1.8 µM; in assay [1] (setting [5]) it was 0.07 µM; in assay [1] (setting [6]), 0.2 µM. Besides, the values for the ED50 in assay [2] (setting [7]) and in assay [2] (setting [8]) were 0.03 mg/kg and 0.05 mg/kg, respectively.
For `COc1ccc(C(=C(C#N)CCC(=O)O)c2ccc(OC)cc2)cc1` [Cpd. D, 4-Cyano-5,5-bis(4-methoxyphenyl)4-pentenoic acid], the IC50 in assay [1] (Homo sapiens, read-out: Effect of inhibiting ADP aggultination IC50) was 1.9 µM; in assay [1] (Homo sapiens, read-out: Effect of inhibiting PAF aggultination IC50) it was 2.8 µM; in assay [1] (Homo sapiens, read-out: Effect of inhibiting arachidonic acid aggultination IC50), 0.8 µM; in assay [1] (Homo sapiens, read-out: Effect of inhibiting collagen aggultination IC50), 1.7 µM. Moreover, the ED50 was 0.03 mg/kg in assay [2] (po, read-out: Effect of inhibiting arachidonic acid aggultination ED50) and 0.05 mg/kg in assay [2] (po, read-out: Effect of inhibiting collagen aggultination ED50).
Turning to `COC(=O)CCCC(C#N)=C(c1ccc(OC)cc1)c1ccc(OC)cc1` [Cpd. E, Methyl 5-cyano-6,6-bis(4-methoxyphenyl)-5-hexenoate], the IC50 in assay [1] (setting [3]) is 0.2 µM; in assay [1] (setting [4]) it was 1.3 µM; in assay [1] (setting [5]) it was 0.06 µM; in assay [1] (setting [6]) it was 0.15 µM. The ED50 in assay [2] (setting [7]) turned out to be 0.3 mg/kg; in assay [2] (setting [8]), 1 mg/kg.
With `CCOC(=O)CC(=O)CON=C(c1ccc(OC)cc1)c1ccc(OC)cc1` [Cpd. L, 4,4'-dimethoxybenzophenone-O-(3-ethoxycarbonyl-2-oxopropyl)oxime], the IC50 is 0.8 µM in assay [1] (setting [3]), 1.2 µM in assay [1] (setting [4]), 0.1 µM in assay [1] (setting [5]) and 0.5 µM in assay [1] (setting [6]). In addition, the ED50 in assay [2] (setting [7]) and in assay [2] (setting [8]) was 30 mg/kg in each case.
Regarding `CCOC(=O)CC(CON=C(c1ccc(OC)cc1)c1ccc(OC)cc1)=NOC` [Cpd. M, 4,4'-Dimethoxybenzophenone O-(3-ethoxycarbonyl-2-methoxyiminopropyl)oxime], the IC50 was 13.2 µM in assay [1] (setting [3]), 20 µM in assay [1] (setting [4]), 12.5 µM in assay [1] (setting [5]) and 14 µM in assay [1] (setting [6]). Also, the ED50 in assay [2] (setting [7]) and in assay [2] (setting [8]) was 55 mg/kg each time.
As to `CON=C(CON=C(c1ccc(OC)cc1)c1ccc(OC)cc1)CC(=O)O` [Cpd. N, 4,4'-Dimethoxybenzophenone O-(3-carboxy-2-methoxyiminopropyl)oxime], the IC50 in assay [1] (setting [3]) amounted to 5 µM; in assay [1] (setting [4]), 4.1 µM; in assay [1] (setting [5]) it was 0.7 µM; in assay [1] (setting [6]) it was 2.8 µM. In addition, the figures for the ED50 in assay [2] (setting [7]) and in assay [2] (setting [8]) were 0.3 mg/kg and 1.3 mg/kg, respectively.
Turning to `CCOC(=O)CCC(C#N)ON=C(c1ccc(OC)cc1)c1ccc(OC)cc1` (centres unmarked) [Cpd. O, 4,4'Dimethoxybenzophenone O-(1-cyano-3-ethoxycarbonylpropyl)oxime], the IC50 in assay [1] (setting [3]) was found to be 20 µM; in assay [1] (setting [4]) it was 14.5 µM; in assay [1] (setting [5]) it was 7 µM; in assay [1] (setting [6]) it was 14 µM. The ED50 in assay [2] (setting [7]) is 0.3 mg/kg; in assay [2] (setting [8]), 1 mg/kg.
On to `COc1ccc(C(=NOC(C#N)CCC(=O)O)c2ccc(OC)cc2)cc1` (centres unmarked) [Cpd. P, 4,4'-Dimethoxybenzophenone O-(1-cyano-3-carboxypropyl)oxime], for which the IC50 was 2.7 µM in assay [1] (setting [3]), 1.5 µM in assay [1] (setting [4]), 0.4 µM in assay [1] (setting [5]) and 1.1 µM in assay [1] (setting [6]). Besides, the ED50 worked out at 0.3 mg/kg in assay [2] (setting [7]) and 1.1 mg/kg in assay [2] (setting [8]).
`COC(=O)CCCC(C#N)ON=C(c1ccc(OC)cc1)c1ccc(OC)cc1` (centres unmarked) [Cpd. Q, 4,4'-Dimethoxybenzophenone O-(1-cyano-4-methoxycarbonylbutyl)oxime]: the IC50 came to 35 µM in assay [1] (setting [3]), 37 µM in assay [1] (setting [4]), 12 µM in assay [1] (setting [5]) and 36 µM in assay [1] (setting [6]). Moreover, the figures for the ED50 in assay [2] (setting [7]) and in assay [2] (setting [8]) were 50 mg/kg and 88 mg/kg, respectively.
Consider `COc1ccc(C(=NOC(C#N)CCCC(=O)O)c2ccc(OC)cc2)cc1` (centres unmarked) [Cpd. R, 4,4'-Dimethoxybenzophenone O-(1-cyano-4-carboxybutyl)oxime], for which the IC50 in assay [1] (setting [3]) is 85 µM; in assay [1] (setting [4]), 79 µM; in assay [1] (setting [5]) it was 50 µM; in assay [1] (setting [6]) it was 80 µM. Also, the ED50 in assay [2] (setting [7]) and in assay [2] (setting [8]) was at most 100 mg/kg each time.
As to `Clc1ccccc1CN1CCc2sccc2C1` [Ticlopidine, reference compound], the figures for the ED50 in assay [2] (setting [7]) and in assay [2] (setting [8]) were 150 mg/kg and at most 200 mg/kg, respectively.

As a reminder, the IC50 is the concentration that gives 50% inhibition. Broadly, the ED50 is the midpoint of the dose-response relation.
